Each structure is given as a SMILES string. Starred links: 1 amine or outer side, 2 acyl side, 3 side chain; linkers in the order of their positions; H or OH if unused. Positions of bridges follow the written chain, without caps; N, C: chain ends. Non-standard residues stand in square brackets, D forms with d. Residues, ends and D or L forms follow the SMILES beside them. *: point of attachment. Bip(4'-NHCO-C6H4-3-CH2COOH) = N[C@@H](Cc1ccc(-c2ccc(NC(=O)c3cccc(CC(=O)O)c3)cc2)cc1)C(=O)O; Bip(4'-(3-HOOC-benzamido)) = N[C@@H](Cc1ccc(-c2ccc(NC(=O)c3cccc(C(=O)O)c3)cc2)cc1)C(=O)O; X40 = O=C(O)C1CCCCC1C(=O)Nc1ccc(-c2ccc(C[C@H](N[*:1])C(=O)[*:2])cc2)cc1; dArg(ω-(2S)-2,3-diOHpropyl) = N=C(NCCC[C@@H](N)C(=O)O)NC[C@H](O)CO; Bip(4'-NH) = O=C([C@H](Cc1ccc(-c2ccc(N[*:3])cc2)cc1)N[*:1])[*:2]; Bip(4'-COOH) = N[C@@H](Cc1ccc(-c2ccc(C(=O)O)cc2)cc1)C(=O)O; Bip(4'-NHAc) = CC(=O)Nc1ccc(-c2ccc(C[C@H](N)C(=O)O)cc2)cc1; Ala(morpholin-4-yl) = N[C@@H](CN1CCOCC1)C(=O)O; Benzoyl(3-OCH2COOH) = O=C(O)COc1cccc(C(=O)*)c1; Phe(3-CONH2) = NC(=O)c1cccc(C[C@H](N)C(=O)O)c1; Bip = N[C@@H](Cc1ccc(-c2ccccc2)cc1)C(=O)O; 2Pal = N[C@@H](Cc1ccccn1)C(=O)O; 3Pal = N[C@@H](Cc1cccnc1)C(=O)O; 2Thi = N[C@@H](Cc1cccs1)C(=O)O; Cha = N[C@@H](CC1CCCCC1)C(=O)O; Tle = CC(C)(C)[C@H](N)C(=O)O; Sar = CNCC(=O)O

The target in this test is TNFα (Homo sapiens, UniProt P01375). Put plainly: TNF-Induced HEK-Blue Assay. To be noted: HEK-Blue-CD40L cells, NF-kB-driven secreted alkaline phosphatase reporter; TNFα 0.5 ng/ml; 18 h; read-out: TNF induced HEK-Blue assay IC50 value. It counts as cell-based.
Sequence of TNFα (P01375 77-233 limits assumed): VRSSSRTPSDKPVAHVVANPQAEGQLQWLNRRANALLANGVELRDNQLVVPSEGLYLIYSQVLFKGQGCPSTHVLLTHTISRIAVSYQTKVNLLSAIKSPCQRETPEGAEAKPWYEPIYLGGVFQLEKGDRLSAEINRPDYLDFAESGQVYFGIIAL
For orientation: IC50 means the concentration that inhibits the measured activity by half. `CC(=O)Nc1ccc(-c2ccc(C[C@@H]3NC(=O)[C@H](Cc4ccc(-c5ccccc5)cc4)NC(=O)[C@H](CN4CCOCC4)NC(=O)CSC[C@@H](C(=O)NCC(N)=O)NC(=O)[C@H](CC(C)C)NC(=O)[C@H](Cc4cccnc4)NC(=O)[C@H](C(C)C)NC(=O)[C@@H]4CCCN4C(=O)[C@H](C(C)C)NC(=O)[C@@H](CCCNC(=N)N)NC(=O)[C@H](CC(=O)O)NC(=O)[C@H](Cc4ccccn4)NC(=O)CN(C)C3=O)cc2)cc1` [Example 176] ({CH2CO}-[Ala(morpholin-4-yl)][Bip][Bip(4'-NHAc)][Sar][2Pal]D[dR]VPV[3Pal]LCG-NH2; thioether N-13): the IC50 was below 50 nM.

Turning to `CC(=O)Nc1ccc(-c2ccc(C[C@@H]3NC(=O)[C@H](Cc4ccc(-c5ccc(C(=O)O)cc5)cc4)NC(=O)[C@H](CN4CCOCC4)NC(=O)CSC[C@@H](C(=O)NCC(N)=O)NC(=O)[C@H](CC(C)C)NC(=O)[C@H](Cc4cccc(C(N)=O)c4)NC(=O)[C@H](C(C)C)NC(=O)[C@@H]4CCCN4C(=O)[C@H](C(C)C)NC(=O)[C@@H](CCCNC(=N)N)NC(=O)[C@H](CC(=O)O)NC(=O)[C@@H]4CCCN4C(=O)CN(C)C3=O)cc2)cc1` [Example 313] ({CH2CO}-[Ala(morpholin-4-yl)][Bip(4'-COOH)][Bip(4'-NHAc)][Sar]PD[dR]VPV[Phe(3-CONH2)]LCG-NH2; thioether N-13), the half-maximal inhibitory concentration (IC50) lay in the range of 200 to 2000 nM.

On to `CC(C)C[C@@H]1NC(=O)[C@H](CCCNC(=N)N)NC(=O)[C@H](C(C)C)NC(=O)[C@@H]2CCCN2C(=O)[C@H](C(C)C)NC(=O)[C@@H](CCCNC(=N)NC[C@H](O)CO)NC(=O)[C@H](CC(=O)O)NC(=O)[C@@H]2CCCN2C(=O)CN(C)C(=O)[C@H](Cc2ccc(-c3ccc(NC(=O)c4cccc(OCC(=O)O)c4)cc3)cc2)NC(=O)[C@H](Cc2ccc(-c3ccccc3)cc2)NC(=O)[C@H](CN2CCOCC2)NC(=O)CSC[C@@H](C(=O)NCC(N)=O)NC1=O` [Example 538] ({CH2CO}-[Ala(morpholin-4-yl)][Bip][Bip(4'-NH)](Benzoyl(3-OCH2COOH))[Sar]PD[dArg(ω-(2S)-2,3-diOHpropyl)]VPVRLCG-NH2; thioether N-13), for which the IC50 lay within 200 to 2000 nM.

As to `CC[C@H](C)[C@@H]1NC(=O)[C@@H]2CCCN2C(=O)[C@H]([C@@H](C)CC)NC(=O)[C@@H](CCCNC(=N)N)NC(=O)[C@H](CC(=O)O)NC(=O)[C@H](Cc2ccccc2)NC(=O)CN(C)C(=O)[C@H](Cc2ccc(-c3ccc(NC(C)=O)cc3)cc2)NC(=O)[C@H](Cc2ccc(-c3ccc(C(=O)O)cc3)cc2)NC(=O)[C@H](C(C)(C)C)NC(=O)CSC[C@@H](C(=O)NCC(N)=O)NC(=O)[C@H](CC(C)C)NC(=O)[C@H](Cc2cnc[nH]2)NC1=O` [Example 295] ({CH2CO}-[Tle][Bip(4'-COOH)][Bip(4'-NHAc)][Sar]FD[dR]IPIHLCG-NH2; thioether N-13), the IC50 is below 50 nM.

`CC(=O)Nc1ccc(-c2ccc(C[C@@H]3NC(=O)[C@H](Cc4ccc(-c5ccccc5)cc4)NC(=O)[C@H](CC4CCCCC4)NC(=O)CSC[C@@H](C(=O)NCC(N)=O)NC(=O)[C@H](CC(C)C)NC(=O)[C@H](Cc4cccc(C(N)=O)c4)NC(=O)[C@H](C(C)C)NC(=O)[C@@H]4CCCN4C(=O)[C@H](C(C)C)NC(=O)[C@@H](CCCNC(=N)N)NC(=O)[C@H](CC(=O)O)NC(=O)[C@@H]4CCCN4C(=O)CN(C)C3=O)cc2)cc1` [Example 240] ({CH2CO}-[Cha][Bip][Bip(4'-NHAc)][Sar]PD[dR]VPV[Phe(3-CONH2)]LCG-NH2; thioether N-13): the concentration for half-maximal inhibition (IC50) is 50 to 200 nM.

For the compound `CC[C@H](C)[C@@H]1NC(=O)[C@@H](CCCNC(=N)N)NC(=O)[C@H](CC(=O)O)NC(=O)[C@H](Cc2cnc[nH]2)NC(=O)CN(C)C(=O)[C@H](Cc2ccc(-c3ccc(NC(=O)C4CCCCC4C(=O)O)cc3)cc2)NC(=O)[C@H](Cc2ccc(-c3ccccc3)cc2)NC(=O)[C@H](CC2CCCCC2)NC(=O)CSC[C@@H](C(=O)NCC(N)=O)NC(=O)[C@H](CC(C)C)NC(=O)[C@H](Cc2cnc[nH]2)NC(=O)[C@H](C(C)C)NC(=O)[C@@H]2CCCN2C1=O` (some centres unmarked) [Example 318] ({CH2CO}-[Cha][Bip][X40][Sar]HD[dR]IPVHLCG-NH2; thioether N-13), the IC50 was 50 to 200 nM.

With `CC(C)C[C@@H]1NC(=O)[C@H](Cc2cccs2)NC(=O)[C@H](C(C)C)NC(=O)[C@@H]2CCCN2C(=O)[C@H](C(C)C)NC(=O)[C@@H](CCCNC(=N)N)NC(=O)[C@H](CC(=O)O)NC(=O)[C@H](Cc2ccccn2)NC(=O)CN(C)C(=O)[C@H](Cc2ccc(-c3ccc(NC(=O)c4cccc(CC(=O)O)c4)cc3)cc2)NC(=O)[C@H](Cc2ccc(-c3ccc(C(=O)O)cc3)cc2)NC(=O)[C@H](CN2CCOCC2)NC(=O)CSC[C@@H](C(=O)NCC(N)=O)NC1=O` [Example 610] ({CH2CO}-[Ala(morpholin-4-yl)][Bip(4'-COOH)][Bip(4'-NHCO-C6H4-3-CH2COOH)][Sar][2Pal]D[dR]VPV[2Thi]LCG-NH2; thioether N-13), the IC50 is below 50 nM.

For `CC[C@H](C)[C@@H]1NC(=O)[C@@H]2CCCN2C(=O)[C@H]([C@@H](C)CC)NC(=O)[C@@H](CCCNC(=N)N)NC(=O)[C@H](CC(=O)O)NC(=O)[C@H](Cc2ccccn2)NC(=O)CN(C)C(=O)[C@H](Cc2ccc(-c3ccc(NC(=O)c4cccc(C(=O)O)c4)cc3)cc2)NC(=O)[C@H](Cc2ccc(-c3ccccc3)cc2)NC(=O)[C@H](C(C)(C)C)NC(=O)CSC[C@@H](C(=O)NCC(N)=O)NC(=O)[C@H](CC(C)C)NC(=O)[C@H](Cc2cccc(C(N)=O)c2)NC1=O` [Example 368] ({CH2CO}-[Tle][Bip][Bip(4'-(3-HOOC-benzamido))][Sar][2Pal]D[dR]IPI[Phe(3-CONH2)]LCG-NH2; thioether N-13), the half-inhibitory concentration (IC50) is below 50 nM.

The record behind these values is patent publication US20250145665A1, “MACROCYCLIC PEPTIDES USEFUL AS MODULATORS OF TNF ALPHA” (Bristol-Myers Squibb Company, priority 2023, published 2025).
